Laboratory results taken from the supplement of paper PMC10307832.

Legend:
Assay in all cases: relative viability (nuclei count vs DMSO), 5 days (fraction); higher = more cells survive
BEN = system: BEN
How it was run: (§1)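 One day after seeding in 1536-well plates, lung cancer cell lines were dosed by pin tool. Dosing was either single-drug or a fixed anchor-drug dose plus five library-drug doses (not always all listed) in √10 steps. After 5 days, nuclei were stained in one fix-and-stain step and counted on 4× images, and relative viability is the nuclei count of treated wells over that of vehicle wells, given as the median of duplicate plates.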

EMC-BAC-2 = system: EMC-BAC-2
How it was run: as §1

H3255 = system: H3255
How it was run: as §1

HOP-62 = system: HOP-62
How it was run: as §1

LCLC-97TM1 = system: LCLC-97TM1
How it was run: as §1

LXF-289 = system: LXF-289
How it was run: as §1

NCI-H1563 = system: NCI-H1563
How it was run: as §1

NCI-H1650 = system: NCI-H1650
How it was run: as §1

NCI-H1915 = system: NCI-H1915
How it was run: as §1

NCI-H1993 = system: NCI-H1993
How it was run: as §1

NCI-H2009 = system: NCI-H2009
How it was run: as §1

NCI-H2023 = system: NCI-H2023
How it was run: as §1

NCI-H2085 = system: NCI-H2085
How it was run: as §1

NCI-H2126 = system: NCI-H2126
How it was run: as §1

NCI-H2347 = system: NCI-H2347
How it was run: as §1

NCI-H322M = system: NCI-H322M
How it was run: as §1

NCI-H358 = system: NCI-H358
How it was run: as §1

NCI-H647 = system: NCI-H647
How it was run: as §1

NCI-H661 = system: NCI-H661
How it was run: as §1

NCI-H727 = system: NCI-H727
How it was run: as §1

PC-14 = system: PC-14
How it was run: as §1

SK-LU-1 = system: SK-LU-1
How it was run: as §1

SW 1573 = system: SW 1573
How it was run: as §1

SMILES: C[C@@H]1CN(CC(=O)Nc2ccc3c(c2)Cc2cccc(-c4cc(=O)cc(N5CCOCC5)o4)c2S3)C[C@H](C)O1 + CS(=O)(=O)CCNCc1ccc(-c2ccc3ncnc(Nc4ccc(OCc5cccc(F)c5)c(Cl)c4)c3c2)o1 [Lapatinib] (partner 2 µM)
- relative viability (BEN; first compound 0.04 µM): 0.609
- relative viability (BEN; first compound 0.1265 µM): 0.666
- relative viability (BEN; first compound 0.4 µM): 0.738
- relative viability (BEN; first compound 4 µM): 0.745
- relative viability (EMC-BAC-2; first compound 0.04 µM): 0.903
- relative viability (EMC-BAC-2; first compound 0.1265 µM): 0.934
- relative viability (EMC-BAC-2; first compound 0.4 µM): 0.775
- relative viability (EMC-BAC-2; first compound 4 µM): 0.827
- relative viability (H3255; first compound 0.04 µM): 0.221
- relative viability (H3255; first compound 0.1265 µM): 0.242
- relative viability (H3255; first compound 0.4 µM): 0.233
- relative viability (H3255; first compound 4 µM): 0.214
- relative viability (HOP-62; first compound 0.04 µM): 0.549
- relative viability (HOP-62; first compound 0.1265 µM): 1.01
- relative viability (HOP-62; first compound 0.4 µM): 1.19
- relative viability (HOP-62; first compound 4 µM): 0.953
- relative viability (LCLC-97TM1; first compound 0.1265 µM): 0.851
- relative viability (LCLC-97TM1; first compound 0.4 µM): 0.867
- relative viability (LCLC-97TM1; first compound 4 µM): 0.858
- relative viability (LXF-289; first compound 0.04 µM): 0.879
- relative viability (LXF-289; first compound 0.1265 µM): 0.962
- relative viability (LXF-289; first compound 0.4 µM): 0.904
- relative viability (LXF-289; first compound 4 µM): 0.835
- relative viability (NCI-H1563; first compound 0.04 µM): 0.834
- relative viability (NCI-H1563; first compound 0.1265 µM): 0.883
- relative viability (NCI-H1563; first compound 0.4 µM): 0.859
- relative viability (NCI-H1563; first compound 4 µM): 0.702
- relative viability (NCI-H1650; first compound 0.04 µM): 0.287
- relative viability (NCI-H1650; first compound 0.1265 µM): 0.812
- relative viability (NCI-H1650; first compound 0.4 µM): 0.719
- relative viability (NCI-H1650; first compound 4 µM): 0.588
- relative viability (NCI-H1915; first compound 0.04 µM): 0.872
- relative viability (NCI-H1915; first compound 0.1265 µM): 0.956
- relative viability (NCI-H1915; first compound 0.4 µM): 1.06
- relative viability (NCI-H1915; first compound 4 µM): 0.785
- relative viability (NCI-H1993; first compound 0.04 µM): 0.862
- relative viability (NCI-H1993; first compound 0.1265 µM): 0.86
- relative viability (NCI-H1993; first compound 0.4 µM): 0.812
- relative viability (NCI-H1993; first compound 4 µM): 0.833
- relative viability (NCI-H2009; first compound 0.04 µM): 0.486
- relative viability (NCI-H2009; first compound 0.1265 µM): 0.846
- relative viability (NCI-H2009; first compound 0.4 µM): 0.964
- relative viability (NCI-H2009; first compound 4 µM): 0.687
- relative viability (NCI-H2023; first compound 0.04 µM): 0.176
- relative viability (NCI-H2023; first compound 0.1265 µM): 0.793
- relative viability (NCI-H2023; first compound 0.4 µM): 0.536
- relative viability (NCI-H2023; first compound 4 µM): 0.719
- relative viability (NCI-H2085; first compound 0.04 µM): 0.402
- relative viability (NCI-H2085; first compound 0.1265 µM): 0.742
- relative viability (NCI-H2085; first compound 0.4 µM): 0.624
- relative viability (NCI-H2085; first compound 4 µM): 0.58
- relative viability (NCI-H2126; first compound 0.04 µM): 0.762
- relative viability (NCI-H2126; first compound 0.1265 µM): 0.757
- relative viability (NCI-H2126; first compound 0.4 µM): 0.764
- relative viability (NCI-H2126; first compound 4 µM): 0.763
- relative viability (NCI-H2347; first compound 0.04 µM): 0.79
- relative viability (NCI-H2347; first compound 0.1265 µM): 1.04
- relative viability (NCI-H2347; first compound 0.4 µM): 0.988
- relative viability (NCI-H2347; first compound 4 µM): 0.875
- relative viability (NCI-H322M; first compound 0.04 µM): 0.39
- relative viability (NCI-H322M; first compound 0.1265 µM): 0.587
- relative viability (NCI-H322M; first compound 0.4 µM): 0.626
- relative viability (NCI-H322M; first compound 4 µM): 0.535
- relative viability (NCI-H358; first compound 0.04 µM): 0.356
- relative viability (NCI-H358; first compound 0.1265 µM): 0.427
- relative viability (NCI-H358; first compound 0.4 µM): 0.39
- relative viability (NCI-H358; first compound 4 µM): 0.417
- relative viability (NCI-H647; first compound 0.04 µM): 1.02
- relative viability (NCI-H647; first compound 0.1265 µM): 1.07
- relative viability (NCI-H647; first compound 0.4 µM): 1.16
- relative viability (NCI-H647; first compound 4 µM): 0.638
- relative viability (NCI-H661; first compound 0.1265 µM): 0.488
- relative viability (NCI-H661; first compound 0.4 µM): 0.479
- relative viability (NCI-H661; first compound 4 µM): 0.411
- relative viability (NCI-H727; first compound 0.04 µM): 0.9
- relative viability (NCI-H727; first compound 0.1265 µM): 0.801
- relative viability (NCI-H727; first compound 0.4 µM): 0.78
- relative viability (NCI-H727; first compound 4 µM): 0.752
- relative viability (PC-14; first compound 0.04 µM): 0.277
- relative viability (PC-14; first compound 0.1265 µM): 0.298
- relative viability (PC-14; first compound 0.4 µM): 0.298
- relative viability (PC-14; first compound 4 µM): 0.316
- relative viability (SK-LU-1; first compound 0.04 µM): 0.869
- relative viability (SK-LU-1; first compound 0.1265 µM): 0.959
- relative viability (SK-LU-1; first compound 0.4 µM): 0.877
- relative viability (SK-LU-1; first compound 4 µM): 0.707
- relative viability (SW 1573; first compound 0.04 µM): 1.1
- relative viability (SW 1573; first compound 0.1265 µM): 1.14
- relative viability (SW 1573; first compound 0.4 µM): 1.18
- relative viability (SW 1573; first compound 4 µM): 1.08
